From patent US20230233576A1, “ECLITASERTIB FOR USE IN TREATING CONDITIONS INVOLVING SYSTEMIC HYPERINFLAMMATORY RESPONSE” (priority 2020, published 2023)

System: adult participants hospitalized for severe COVID-19
Assay: Phase 1b severe COVID-19 study: adverse events and deaths
Assay type: in vivo, human
Description: Safety evaluation was based on adverse events (Aes) including serious adverse events (SAEs) and adverse events of special interest (AESIs) (i.e., pregnancy, symptomatic overdose with IMP. Alanine aminotransferase [ALT] increase, and anemia), and treatment-emergent adverse events (TEAEs) leading to treatment discontinuation.
The primary focus of AE reporting was on treatment emergent adverse events (TEAEs). Treatment emergent adverse events were Aes that were not present at baseline or represented the exacerbation of a pre-existing condition during the on-treatment period (treatment-emergent period), defined as the time from the first administration of the IMP up to and including the day of last dose of study drug plus 5 days.
All adverse events were coded to a “preferred term (PT)”, “high-level term (HLT)”, “high-level group term (HLGT)”, and associated primary SOC using Medical Dictionary for Regulatory Activities (MedDRA) version 23.1.
The number and cumulative incidence rate of deaths [%] during the on-study period were computed by treatment group: number of deaths divided by the number of participants. Kaplan-Meier plot for time to death was presented by treatment group.

[1] = 600 mg (N = 47), Safety population

CN1C(=O)[C@@H](NC(=O)c2nnc(Cc3ccccc3)[nH]2)COc2cccnc21 [RIPK1 Inhibitor, (S)-5-benzyl-N-(5-methyl-4-oxo-2,3,4,5-tetrahydropyrido[3,2-b][1,4]oxazepin-3-yl)-4H-1,2,4-triazole-3-carboxamide]
intensity of the majority of the TEAEs (600 mg): grade 2
participants with PCSAs in hemoglobin and hematocrits considered as TEAEs of anemia (600 mg): 1 participants
Participants with TEAE(s) (SAE): Any class [1]: 6 (12.8) n (%)
Participants with TEAE(s) (SAE): PT Bacterial infection [1]: 1 (2.1) n (%)
Participants with TEAE(s) (SAE): PT Cardiac arrest [1]: 0 n (%)
Participants with TEAE(s) (SAE): PT Condition aggravated [1]: 2 (4.3) n (%)
Participants with TEAE(s) (SAE): PT Peripheral artery thrombosis [1]: 1 (2.1) n (%)
Participants with TEAE(s) (SAE): PT Pneumonia bacterial [1]: 1 (2.1) n (%)
Participants with TEAE(s) (SAE): PT Pseudomonas infection [1]: 1 (2.1) n (%)
Participants with TEAE(s) (SAE): PT Pulmonary embolism [1]: 1 (2.1) n (%)
Participants with TEAE(s) (SAE): PT Respiratory failure [1]: 0 n (%)
Participants with TEAE(s) (SAE): SOC CARDIAC DISORDERS [1]: 0 n (%)
Participants with TEAE(s) (SAE): SOC GENERAL DISORDERS AND ADMINISTRATION SITE CONDITIONS [1]: 2 (4.3) n (%)
Participants with TEAE(s) (SAE): SOC INFECTIONS AND INFESTATIONS [1]: 3 (6.4) n (%)
Participants with TEAE(s) (SAE): SOC RESPIRATORY, THORACIC AND M[…] [1]: 1 (2.1) n (%)
Participants with TEAE(s) (SAE): SOC VASCULAR DISORDERS [1]: 1 (2.1) n (%)
TEAE, Any class: number of participants [1]: 24
TEAE, Any class: percentage of participants [1]: (51.1) %
TEAE, PT Alanine aminotransferase increased: number of participants [1]: 6
TEAE, PT Alanine aminotransferase increased: percentage of participants [1]: (12.8) %
TEAE, PT Anaemia: number of participants [1]: 1
TEAE, PT Anaemia: percentage of participants [1]: (2.1) %
TEAE, PT Anxiety disorder: number of participants [1]: 1
TEAE, PT Anxiety disorder: percentage of participants [1]: (2.1) %
TEAE, PT Arterial injury: number of participants [1]: 1
TEAE, PT Arterial injury: percentage of participants [1]: (2.1) %
TEAE, PT Aspartate aminotransferase increased: number of participants [1]: 1
TEAE, PT Aspartate aminotransferase increased: percentage of participants [1]: (2.1) %
TEAE, PT Back pain: number of participants [1]: 1
TEAE, PT Back pain: percentage of participants [1]: (2.1) %
TEAE, PT Bacterial infection: number of participants [1]: 1
TEAE, PT Bacterial infection: percentage of participants [1]: (2.1) %
TEAE, PT Blood pressure increased: number of participants [1]: 0
TEAE, PT Cardiac arrest: number of participants [1]: 0
TEAE, PT Cerebral ischaemia: number of participants [1]: 0
TEAE, PT Chest discomfort: number of participants [1]: 1
TEAE, PT Chest discomfort: percentage of participants [1]: (2.1) %
TEAE, PT Cholelithiasis: number of participants [1]: 0
TEAE, PT Constipation: number of participants [1]: 1
TEAE, PT Constipation: percentage of participants [1]: (2.1) %
TEAE, PT Dehydration: number of participants [1]: 1
TEAE, PT Dehydration: percentage of participants [1]: (2.1) %
TEAE, PT Diarrhoea: number of participants [1]: 4
TEAE, PT Diarrhoea: percentage of participants [1]: (8.5) %
TEAE, PT Drug hypersensitivity: number of participants [1]: 1
TEAE, PT Drug hypersensitivity: percentage of participants [1]: (2.1) %
TEAE, PT Dyspepsia: number of participants [1]: 0
TEAE, PT Dyspnoea: number of participants [1]: 1
TEAE, PT Dyspnoea: percentage of participants [1]: (2.1) %
TEAE, PT Emphysema: number of participants [1]: 1
TEAE, PT Emphysema: percentage of participants [1]: (2.1) %
TEAE, PT Encephalopathy: number of participants [1]: 0
TEAE, PT Fatigue: number of participants [1]: 1
TEAE, PT Fatigue: percentage of participants [1]: (2.1) %
TEAE, PT Flatulence: number of participants [1]: 1
TEAE, PT Flatulence: percentage of participants [1]: (2.1) %
TEAE, PT Furuncle: number of participants [1]: 0
TEAE, PT Gastritis: number of participants [1]: 0
TEAE, PT Gastrooesophageal sphincter insufficiency: number of participants [1]: 0
TEAE, PT Hyperglycaemia: number of participants [1]: 1
TEAE, PT Hyperglycaemia: percentage of participants [1]: (2.1) %
TEAE, PT Hypertension: number of participants [1]: 1
TEAE, PT Hypertension: percentage of participants [1]: (2.1) %
TEAE, PT Hypoglycaemia: number of participants [1]: 1
TEAE, PT Hypoglycaemia: percentage of participants [1]: (2.1) %
TEAE, PT Hypophosphataemia: number of participants [1]: 1
TEAE, PT Hypophosphataemia: percentage of participants [1]: (2.1) %
TEAE, PT Metabolic acidosis: number of participants [1]: 0
TEAE, PT Nausea: number of participants [1]: 1
TEAE, PT Nausea: percentage of participants [1]: (2.1) %
TEAE, PT Non-cardiac chest pain: number of participants [1]: 1
TEAE, PT Non-cardiac chest pain: percentage of participants [1]: (2.1) %
TEAE, PT Noninfective bronchitis: number of participants [1]: 0
TEAE, PT Oesophageal ulcer: number of participants [1]: 0
TEAE, PT Oesophagitis: number of participants [1]: 0
TEAE, PT Oropharyngeal pain: number of participants [1]: 1
TEAE, PT Oropharyngeal pain: percentage of participants [1]: (2.1) %
TEAE, PT Ovarian cyst: number of participants [1]: 0
TEAE, PT Peripheral artery thrombosis: number of participants [1]: 1
TEAE, PT Peripheral artery thrombosis: percentage of participants [1]: (2.1) %
TEAE, PT Pleural effusion: number of participants [1]: 0
TEAE, PT Pneumomediastinum: number of participants [1]: 0
TEAE, PT Pneumonia bacterial: number of participants [1]: 1
TEAE, PT Pneumonia bacterial: percentage of participants [1]: (2.1) %
TEAE, PT Pneumonia: number of participants [1]: 0
TEAE, PT Pneumoperitoneum: number of participants [1]: 0
TEAE, PT Pneumothorax: number of participants [1]: 0
TEAE, PT Procedural pneumothorax: number of participants [1]: 0
TEAE, PT Pseudomembranous colitis: number of participants [1]: 1
TEAE, PT Pseudomembranous colitis: percentage of participants [1]: (2.1) %
TEAE, PT Pseudomonas infection: number of participants [1]: 1
TEAE, PT Pseudomonas infection: percentage of participants [1]: (2.1) %
TEAE, PT Psychomotor hyperactivity: number of participants [1]: 0
TEAE, PT Pulmonary embolism: number of participants [1]: 1
